Laboratory results reported in the NIST ThermoML archive (doi:10.1021/je700339f).

Test: xn = mol fraction of the nth substance listed
Settings: 298 K, Liquid

ClCCCCCCCl [1,6-dichlorohexane] + CN(C)C=O
mass density [kg/m3]
Settings	x2 = 0.0986	x2 = 0.2013	x2 = 0.3197	x2 = 0.4014	x2 = 0.5033	x2 = 0.6037	x2 = 0.7034	x2 = 0.8019	x2 = 0.9008
10000 kPa	–	–	–	–	1025.7	1013.9	1000.8	986.4	969.8
10400 kPa	–	–	–	–	–	–	–	986.7	969.9
10500 kPa	1063.5	1055.8	1045.3	1037.2	1026	1014.2	1001.1	–	–
10900 kPa	1063.8	–	–	–	–	–	–	987	–
11000 kPa	–	1056.1	1045.5	1037.5	1026.4	1014.5	1001.4	–	970.3
11400 kPa	–	–	1045.8	–	–	1014.8	–	–	–
11500 kPa	1064.2	1056.4	–	1037.8	1026.7	–	1001.8	987.4	970.5
11900 kPa	–	–	–	–	–	1015.1	–	–	–
12000 kPa	1064.5	1056.8	1046.2	1038.2	1027	–	1002	987.6	970.8
12400 kPa	–	–	–	–	–	1015.4	–	–	971.1
12500 kPa	1064.9	1057.1	1046.5	1038.4	1027.3	–	1002.4	988	–
12900 kPa	1065.2	–	–	1038.8	–	–	–	–	–
13000 kPa	–	1057.4	1046.8	–	1027.6	1016	1002.7	988.2	971.3
13500 kPa	1065.5	1057.8	1047.2	1039.2	1028	1016.3	1003	988.6	971.6
13900 kPa	–	–	–	1039.5	–	–	–	–	–
14000 kPa	1065.8	1058.1	1047.5	–	1028.3	1016.6	1003.3	989	971.9
14400 kPa	–	–	–	–	–	1016.8	–	–	–
14500 kPa	–	1058.4	1047.8	1039.8	1028.6	–	1003.5	989.2	972.2
14600 kPa	1066.2	–	–	–	–	–	–	–	–
15000 kPa	1066.5	1058.7	1048.2	1040	1028.9	1017.3	–	–	–
